In patent publication US7935824B2, “Ethylenediamine derivatives” (Daiichi Pharmaceutical Co., Ltd., priority 2000, dated 2011):
Structures can show the parent of a compound that is named as a salt.

Target: T1, human FXa (Homo sapiens, UniProt P00742)
T1 construct: purchased Cosmobio ERL HFXa-1011
Test: Determination of FXa-inhibiting effect (IC50 value), chromogenic substrate S2222
Type: biochemical
Conditions: 0.05 U/ml human FXa, substrate S2222, absorbance at 405 nm, room temperature, pH 7.4 buffer

T1 sequence (P00742 235-488 limits assumed): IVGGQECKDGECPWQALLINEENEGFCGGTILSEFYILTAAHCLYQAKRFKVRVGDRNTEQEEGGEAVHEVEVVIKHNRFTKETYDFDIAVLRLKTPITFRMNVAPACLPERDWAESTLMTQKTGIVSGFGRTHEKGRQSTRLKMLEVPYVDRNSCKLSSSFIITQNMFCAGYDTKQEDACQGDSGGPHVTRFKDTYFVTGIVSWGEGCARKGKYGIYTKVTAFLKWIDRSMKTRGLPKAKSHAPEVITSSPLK
T1 sequence (P00742 41-179 partner limits assumed): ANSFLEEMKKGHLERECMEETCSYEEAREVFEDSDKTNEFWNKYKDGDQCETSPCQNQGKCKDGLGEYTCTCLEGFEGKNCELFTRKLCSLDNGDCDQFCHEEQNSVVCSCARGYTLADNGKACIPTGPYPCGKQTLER

Molecule | IC50
CN1Cc2nc(C(=O)N[C@@H]3CCCC[C@@H]3NC(=O)c3cc4cc(Cl)ccc4[nH]3)sc2C1 (racemic) [Example 41, (±)-cis-N^1-[(5-Chloroindol-2-yl)carbonyl]-N^2-[(5-methyl-4,6-dihydro-5H-pyrrolo[3,4-d]thiazol-2-yl)carbonyl]-1,2-cyclohexanediamine hydrochloride] | 36 nM
CC(C)N1CCc2nc(C(=O)N[C@@H]3CC(CO)C[C@H]3NC(=O)c3cc4cc(Cl)ccc4[nH]3)sc2C1 (single isomer, unassigned; stereoisomer b) [Example 68, (1R*,2R*)-N^1-[(5-Chloroindol-2-yl)carbonyl]-4-hydroxymethyl-N^2-[(5-isopropyl-4,5,6,7-tetrahydro-thiazolo[5,4-c]pyridin-2-yl)carbonyl]-1,2-cyclopentanediamine hydrochloride (Stereoisomer B)] | 4.1 nM
CN1CCc2nc(C(=O)N[C@@H]3CCCC[C@@H]3NC(=O)c3cc4cc(Br)ccc4[nH]3)sc2C1 (racemic) [Example 15, (±)-cis-N^1-[(5-Bromoindol-2-yl)carbonyl]-N^2-[(5-methyl-4,5,6,7-tetrahydrothiazolo[5,4-c]pyridin-2-yl)carbonyl]-1,2-cyclohexanediamine hydrochloride] | 92 nM
CN1CCc2nc(C(=O)N[C@@H]3CCC[C@H]3NC(=O)c3cc4cc(Cl)ccc4[nH]3)sc2C1 (racemic) [Example 3, (±)-trans-N^1-[(5-Chloroindol-2-yl)carbonyl]-N^2-[(5-methyl-4,5,6,7-tetrahydrothiazolo[5,4-c]pyridin-2-yl)carbonyl]-1,2-cyclopentanediamine hydrochloride] | 86 nM
CN1CCc2nc(C(=O)N[C@@H]3CCCC[C@@H]3NC(=O)c3ccc4cc(Cl)ccc4c3)sc2C1 (racemic) [Example 10, (±)-cis-N^1-[(6-Chloronaphthalen-2-yl)carbonyl]-N^2-[(5-methyl-4,5,6,7-tetrahydrothiazolo[5,4-c]pyridin-2-yl)-carbonyl]-1,2-cyclohexanediamine hydrochloride] | 83 nM

The next molecules have a lower IC50 than those just listed; values first:

IC50 | Molecule
3.3 nM | CN1CCc2nc(C(=O)N[C@@H]3C[C@@H](CO)CC[C@H]3NC(=O)c3cc4cc(Cl)ccc4[nH]3)sc2C1 [Example 176, (1R,2R,4S)—N^1-[(5-Chloroindol-2-yl)carbonyl]-4-hydroxymethyl-N^2-[(5-methyl-4,5,6,7-tetrahydrothiazolo[5,4-c]pyridin-2-yl)carbonyl]-1,2-cyclohexanediamine]
2.7 nM | CC(C)(CO)N1CCc2nc(C(=O)N[C@@H]3CC(CO)C[C@H]3NC(=O)c3cc4cc(Cl)ccc4[nH]3)sc2C1 (single isomer, unassigned; stereoisomer b) [Example 70, (1R*,2R*)-N^1-[(5-Chloroindol-2-yl)carbonyl]-N^2-[5-(1-dimethyl-2-hydroxyethyl)-4,5,6,7-tetrahydrothiazolo-[5,4-c]pyridin-2-yl)carbonyl]-4-hydroxymethyl-1,2-cyclopentanediamine hydrochloride (Stereoisomer B)]
1.4 nM | (±)-cis-N^1(or N^2)-[(5-Chloroindol-2-yl)carbonyl]-4,4-(1,2-ethylenedioxy)-N^2(or N^1)-[(5-methyl-4,5,6,7-tetrahydrothiazolo[5,4-c]pyridin-2-yl)carbonyl]-1,2-cyclohexanediamine [Example 167]
